Experimental data from patent publication US20250230154A1, “COMPOUND HAVING SHP2 PROTEIN DEGRADING ACTIVITY, AND MEDICAL USES THEREOF” (UBIX THERAPEUTICS, INC., priority 2021, published 2025).

Target: T1, SHP2 protein (Homo sapiens, UniProt Q06124)
T1 sequence (Q06124 1-593): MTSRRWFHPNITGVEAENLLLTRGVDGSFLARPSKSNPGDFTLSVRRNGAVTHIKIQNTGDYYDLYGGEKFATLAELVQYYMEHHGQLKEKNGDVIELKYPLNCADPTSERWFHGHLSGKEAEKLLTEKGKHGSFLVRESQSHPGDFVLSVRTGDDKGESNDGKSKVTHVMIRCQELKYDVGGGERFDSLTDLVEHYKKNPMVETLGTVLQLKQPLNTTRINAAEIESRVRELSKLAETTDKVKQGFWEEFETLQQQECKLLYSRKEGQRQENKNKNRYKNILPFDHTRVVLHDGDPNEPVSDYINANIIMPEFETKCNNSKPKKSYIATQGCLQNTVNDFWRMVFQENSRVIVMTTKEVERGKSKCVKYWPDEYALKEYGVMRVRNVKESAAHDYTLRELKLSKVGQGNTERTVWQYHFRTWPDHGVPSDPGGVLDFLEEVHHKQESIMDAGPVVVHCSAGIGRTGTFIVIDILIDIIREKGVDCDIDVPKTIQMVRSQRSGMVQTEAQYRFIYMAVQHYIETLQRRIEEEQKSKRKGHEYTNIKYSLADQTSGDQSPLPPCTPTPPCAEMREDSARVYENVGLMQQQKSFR
Assay: Measurement of SHP2 protein degradation in MV-4-11 cells (western blotting)
Assay type: cell-based
Design: endogenous in cells; host or cells: MV-4-11
Settings: MV-4-11 cells, 24 hours
Method in brief: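 SHP2 protein levels were assessed by western blotting in MV-4-11 cells after a 24 hour compound treatment. Lysates were sonicated, centrifuged, normalized by BCA assay at 562 nm, run on Bis-tris 4-12% gels, transferred to NC membrane, probed with anti-SHPTP2 (70 kDa) and anti-GAPDH (37 kDa) antibodies, and detected on LI-COR Odyssey.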

| SMILES | SHP2 degradation (%) 10 nM [%] | SHP2 degradation (%) 100 nM [%] | SHP2 degradation (%) 1000 nM [%] |
| --- | --- | --- | --- |
| Cc1ncsc1-c1ccc(CNC(=O)[C@@H]2C[C@@H](O)CN2C(=O)[C@@H](NC(=O)C2(F)CC2)C(C)(C)C)c(OCCN2CCN(c3cnc(C(=O)Nc4cccc(Sc5cnc(N6CCC(C)(CN)CC6)cn5)c4Cl)nc3)CC2)c1 [Example 83, N-(3-((5-(4-(aminomethyl)-4-methylpiperidin-1-yl)pyrazin-2-yl)thio)-2-chlorophenyl)-5-(4-(2-(2-(((2S,4R)-1-((S)-2-(1-fluorocyclopropane-1-carboxamido)-3,3-dimethylbutanoyl)-4-hydroxypyrrolidine-2-carboxamido)methyl)-5-(4-methylthiazol-5-yl)phenoxy)ethyl)piperazin-1-yl)pyrimidine-2-carboxamide] | 79.9 | 97.5 | – |
| Cc1ncsc1-c1ccc(CNC(=O)[C@@H]2C[C@@H](O)CN2C(=O)[C@@H](NC(=O)C2(F)CC2)C(C)(C)C)c(OCCCC2CCN(CCC(=O)Nc3cccc(Sc4cnc(N5CCC(C)(CN)CC5)cn4)c3Cl)CC2)c1 [Example 75, (2S,4R)—N-(2-(3-(1-(3-((3-((5-(4-(aminomethyl)-4-methylpiperidin-1-yl)pyrazin-2-yl)thio)-2-chlorophenyl)amino)-3-oxopropyl)piperidin-4-yl)propoxy)-4-(4-methylthiazol-5-yl)benzyl)-1-((S)-2-(1-fluorocyclopropane-1-carboxamido)-3,3-dimethylbutanoyl)-4-hydroxypyrrolidine-2-carboxamide] | 19.5 | 75.5 | 93.5 |
| Cc1ncsc1-c1ccc(CNC(=O)[C@@H]2C[C@@H](O)CN2C(=O)[C@@H](NC(=O)C2(F)CC2)C(C)(C)C)c(OCCN2CCN(C(=O)CC(=O)Nc3cccc(Sc4ncc(N5CCC(C)(N)CC5)nc4N)c3Cl)CC2)c1 [Example 54, (2S,4R)—N-(2-(2-(4-(3-((3-((3-amino-5-(4-amino-4-methylpiperidin-1-yl)pyrazin-2-yl)thio)-2-chlorophenyl)amino)-3-oxopropanoyl)piperazin-1-yl)ethoxy)-4-(4-methylthiazol-5-yl)benzyl)-1-((S)-2-(1-fluorocyclopropane-1-carboxamido)-3,3-dimethylbutanoyl)-4-hydroxypyrrolidine-2-carboxamide] | 85.8 | 98.3 | – |
| Cc1ncsc1-c1ccc(CNC(=O)[C@@H]2C[C@@H](O)CN2C(=O)[C@@H](NC(=O)C2(F)CC2)C(C)(C)C)c(OCCCC2CCN(C(=O)C(=O)Nc3cccc(Sc4cnc(N5CCC(C)(CN)CC5)cn4)c3Cl)CC2)c1 [Example 28, (2S,4R)—N-(2-(3-(1-(2-((3-((5-(4-(aminomethyl)-4-methylpiperidin-1-yl)pyrazin-2-yl)thio)-2-chlorophenyl)amino)-2-oxoacetyl)piperidin-4-yl)propoxy)-4-(4-methylthiazol-5-yl)benzyl)-1-((S)-2-(1-fluorocyclopropane-1-carboxamido)-3,3-dimethylbutanoyl)-4-hydroxypyrrolidine-2-carboxamide] | 19 | 76.5 | 94 |
| Cc1ncsc1-c1ccc(CNC(=O)[C@@H]2C[C@@H](O)CN2C(=O)[C@@H](NC(=O)C2(F)CC2)C(C)(C)C)c(OCCCC2CCN(C(=O)CC(=O)Nc3cccc(Sc4cnc(N5CCC(C)(CN)CC5)cn4)c3Cl)CC2)c1 [Example 41, (2S,4R)—N-(2-(3-(1-(3-((3-((5-(4-(aminomethyl)-4-methylpiperidin-1-yl)pyrazin-2-yl)thio)-2-chlorophenyl)amino)-3-oxopropanoyl)piperidin-4-yl)propoxy)-4-(4-methylthiazol-5-yl)benzyl)-1-((S)-2-(1-fluorocyclopropane-1-carboxamido)-3,3-dimethylbutanoyl)-4-hydroxypyrrolidine-2-carboxamide] | 77.0 | 92.5 | 91.5 |
